# Measured values reported in US5420289A, “Substituted indole-, indene-, pyranoindole- and tetrahydrocarbazole-alkanoic acid derivatives as inhibitors of PLA2 and lipoxygenase” (American Home Products Corporation, priority 1993, dated 1995).
# Structures can show the parent of a compound that is named as a salt.
# Columns and labels:
# [1] = target: T1, human synovial fluid PLA2 (Homo sapiens, UniProt P14555); experiment: in vitro isolated phospholipase A2 assay, human synovial fluid PLA2 (Example 74); assay type: biochemical; set-up: inhibition / % Inhibition, HSF (human synovial fluid): dose or concentration left out as unconfirmed; details: for inhibition: read-out: % Inhibition, HSF (human synovial fluid); for IC50: Table III, read-out: IC50 HSF (human synovial fluid)
# T1 sequence (P14555 21-144): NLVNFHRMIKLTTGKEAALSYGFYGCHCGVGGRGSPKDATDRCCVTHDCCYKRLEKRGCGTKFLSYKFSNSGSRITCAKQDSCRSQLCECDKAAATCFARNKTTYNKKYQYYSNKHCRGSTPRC
# Method: The compounds of the invention are tested in an in vitro isolated phospholipase A2 assay to determine the ability of the test compounds to inhibit the release of arachidonic acid from an arachidonic acid-containing substrate by the action of phospholipase A2 enzyme from human and non-human sources.
# (§1) This assay is carried out as follows:
# Into a 15 mL polypropylene tube are added the following:
# ^6 Two human PLA2 enzymes are used:
# b) Purified human synovial fluid.
# Incubate the 100mL reaction mixture for 10 minutes at 37° C. in a shaking water bath. The reaction is terminated by the addition of 2 mL tetrahydrofuran, followed by vortexlag. NH2 columns (100 mg/mL--Analytichem International) are conditioned with 0.5 mL tetrahydrofuran followed by 0.5 mL tetrahydrofuran/water (2 mL:0.1 mL, v/v).
# The sample is loaded onto the columns and slowly drawn through them. The hydrolyzed arachidonic acid retained in the columns is eluted therefrom with 1 mL tetrahydrofuran/glacial acetic acid (2%). The arachidonic acid is transferred to scintillation vials and quantitated by b-counting analysis. A "total counts" sample is prepared by pipetting […] ^3 H-arachidonate E. coli directly into a scintillation vial to which is added 1 mL tetrahydrofuran. 10 mL aquasol (scintillation cocktail) is added to all samples. [formula]
# [2] = system: 5-lipoxygenase in human whole blood; experiment: inhibition of 5-lipoxygenase in human whole blood (Example 79); assay type: cell-based; details: for IC50: human whole blood, read-out: IC50 (inhibition of LTB4)
# Method: The assay of this Example measures the ability of the compounds tested to inhibit 5-lipoxygenase in human whole blood.
# as §1
# Blood is obtained in 50-100 ml quantities from male donors. White blood cell counts and differentials are made. Two ml of blood are placed in a 15 ml polypropylene test tube. Compounds are solubilized in dimethylsulfoxide and diluted 1:10 in 10% bovine serum albumin in phosphate buffered saline, pH 7.4 resulting in a final dimethylsulfoxide concentration of 0.1% in the blood. Then, compounds are added to the blood in a shaking water bath at 37° C. for 10 minutes prior to the addition of […] calcium ionophore (A23187; Sigma). After ionophore administration, whole blood samples are mixed and incubated for 20 minutes at 37° C. in a shaking water bath. Incubation is terminated by placing samples in an ice bath and immediately adding ethylene glycol-bis-(b-aminoethyl ether)-N,N,N',N'-tetraacetic acid (10 mM). Samples are mixed and centrifuged at 1200 × g for 15 minutes at 4° C. Preparation of samples for evaluation by RIA or ELISA is carried out by the following protocol. Plasma is removed from sample tubes, placed in 15 ml polypropylene test tubes containing 8 ml methanol, and then vortexed to precipitate protein. Samples are stored at -70° C. overnight. The next day, samples are centrifuged at 200 × g for 15 minutes at 4° C. to pellet the precipitate. Samples are dried in a Savant speed vac concentrator, reconstituted to original volume with ice cold RIA or ELISA buffer, and stored at -70° C. until assayed. The assay for eicosanoids (LTB4, T×B2, and PGE2) is performed as described by the manufacturer of the [^3 H]-RIA kit or ELISA kit (LTB4 -Amersham, TxB2 and PGE2 - Caymen Chemical).
# The total eicosanoid level in 2 ml of blood is calculated and reported as ng/10^6 neutrophils. […] Drug effects are expressed as percent change from control values.
# Compounds tested in vitro are solubilized in dimethylsulfoxide and diluted 1:10 in 10% bovine serum albumin in phosphate buffer saline resulting in a final dimethylsulfoxide concentration of 0.1% i n the blood.
molecule,measurement,setting,value
"Cc1c(CC(=O)O)c2cc(OCc3csc(-c4ccccc4)n3)ccc2n1Cc1ccc(Cl)cc1 [Example 38, 1-[(4-Chlorophenyl)methyl]-2-methyl-5-[(2-phenyl-4-thiazolyl)methoxy]-1H-indole-3-acetic acid]",inhibition,[1],31%
"Cc1c(CC(=O)O)c2cc(OCc3ccc4ccccc4c3)ccc2n1Cc1ccc(Cl)cc1 [Example 34, 1-[(4-Chlorophenyl)methyl]-2-methyl-5-(2-naphthalenylmethoxy)-1H-indole-3-acetic acid]",IC50,[1],33.7 µM
"O=C(O)Cc1cn(Cc2ccc(Cl)cc2)c2ccc(OCc3ccc4ccccc4n3)cc12 [Example 33, 1-[(4-Chlorophenyl)methyl]-5-(2-quinolinylmethoxy)-1H-indole-3-acetic acid]",inhibition,[1],38%
"CC1=C(CC(=O)N(C)O)c2cc(F)ccc2C1=Cc1ccc(OCc2ccc3ccccc3n2)cc1 [Example 44, 5-Fluoro-N-hydroxy-N,2-dimethyl-1-[[4-(2-quinolinylmethoxy)penyl]methylene]-1H -indene-3-acetamide hydrochloride]",% Inhibition of LTB4,[2]; 25 μM,94%
same,IC50,[2],4.5 µM
"Cc1c(CC(=O)N(C)O)c2cc(OCc3csc(-c4ccccc4)n3)ccc2n1Cc1ccccc1 [Example 57, N-hydroxy-5-[(2-phenyl-4-thiazolyl)methoxy]-1-(phenylmethyl)-N,2-dimethyl-1H-indole-3-acetamide]",IC50,[2],43.3 µM
Cc1c(CC(=O)NS(=O)(=O)c2ccccc2)c2cc(OCc3ccc4ccccc4n3)ccc2n1Cc1ccc(Cl)cc1 [Example 23],inhibition,[1],64%
"CCOC(=O)Cc1c(C)n(Cc2cccc(OC)c2)c2ccc(OCc3csc(-c4ccccc4)n3)cc12 [Example 59, 5-[(2-Phenyl-4-thiazolyl)methoxy]-1-[[(3-methoxy)phenyl]methyl]-2-methyl-1H-indole-3-acetic acid ethyl ester]",inhibition,[1],6%
"Cc1c(CC(=O)O)c2cc(OCc3csc(-c4ccc(C(F)(F)F)cc4)n3)ccc2n1Cc1ccc(Cl)cc1 [Example 39, 1-[(4-Chlorophenyl)methyl]-2-methyl-5-[[2-(4-trifluoromethylphenyl)-4-thiazolyl]methoxy]-1H-indole-3-acetic acid]",inhibition,[1],46%
"CC(C)c1ccc2c(c1)c(SC(C)(C)C)c(CC(C)(C)C(=O)O)n2Cc1ccc(Cl)cc1 [L-663,536, reference compound]",% Inhibition of LTB4,[2]; 3 μM,96%
"Cc1c(CC(=O)O)c2cc(OCc3csc(-c4ccccc4)n3)ccc2n1Cc1ccccc1 [Example 40, 1-[(Phenyl)methyl]-2-methyl-5-[(2-phenyl-4-thiazolyl)methoxy]-1H-indole-3-acetic acid]",inhibition,[1],42%
"CCOC(=O)Cc1c(C)n(Cc2ccc(SC)cc2)c2ccc(OCc3nc4ccccc4s3)cc12 [Example 53, 5-(2-Benzothiazolylmethoxy)-1-[[4-(methylthio)phenyl]methyl]-2-methyl-1H-indole-3-acetic acid ethyl ester]",% Inhibition of LTB4,[2]; 25 μM,80%
same,inhibition,[1],1%
"Cc1c(CC(=O)O)c2cc(OCc3nc4ccccc4s3)ccc2n1Cc1ccc(Cl)cc1 [Example 37, 1-[(4-Chlorophenyl)methyl]-2-methyl-5-(2-benzothiazolylmethoxy)-1H-indole-3-acetic acid]",inhibition,[1],39%
1-[(4-Chlorophenyl)methyl]-5-(2-quinolinylmethoxy)-1H-indole-3-acetic acid [Example 32],"% Inhibition, HSF (human synovial fluid)",[1],36%
"Cc1c(CC(=O)O)c2cc(OCc3ccccc3)ccc2n1Cc1ccc(Cl)cc1 [Example 35, 1-[(4-Chlorophenyl)methyl]-2-methyl-5-(phenylmethoxy)-1H-indole-3-acetic acid]",IC50,[1],52.9 µM
same,inhibition,[1],28%
"Cc1c(CC(=O)O)c2cc(OCc3ccc4ccccc4n3)ccc2n1Cc1ccc(C(=O)O)cc1 [Example 27, 1-[(4-Carboxyphenyl)methyl]-2-methyl-5-(2-quinolinylmethoxy)-1H-indole-3-acetic acid]",inhibition,[1],45%
"Cc1c(CC(=O)O)c2cc(OCc3csc(-c4ccccc4)n3)ccc2n1Cc1ccc2ccccc2c1 [Example 67, 5-[(2-Phenyl-4-thiazolyl)methoxy]-1-(2-nanhthalenylmethyl)-2-methyl-1H-indole-3-acetic acid]",% Inhibition of LTB4,[2]; 25 μM,30%
same,inhibition,[1],49%
"Cc1c(CC(=O)O)c2cc(OCc3ccc4ccccc4n3)ccc2n1Cc1ccc(OCc2ccc3ccccc3n2)cc1 [Example 28, 2-Methyl-5-(2-quinolinylmethoxy)-1-[[4-(2-quinolinylmethoxy)phenyl]methyl]-1H-indole-3-acetic acid hemihydrate]",inhibition,[1],41%
"CC(c1cc2ccccc2s1)N(O)C(N)=O (stereo not drawn) [Example A-64077, reference compound]",% Inhibition of LTB4,[2]; 25 μM,72%
same,IC50,[2],3 µM
"CCOC(=O)Cc1c(C)n(Cc2ccc(C(C)(C)C)cc2)c2ccc(OCc3csc(-c4ccccc4)n3)cc12 [Example 61, 5-[(2-Phenyl-4-thiazolyl)methoxy]-1-[[4-(1,1-dimethylethyl)phenyl]methyl]-2-methyl-1H-indole-3-acetic acid ethyl ester]",% Inhibition of LTB4,[2]; 25 μM,5%
"CSc1ccc(Cn2c(C)c(CC(=O)O)c3cc(OCc4csc(-c5ccccc5)n4)ccc32)cc1 [Example 58, 5-[(2-Phenyl-4-thiazolyl)methoxy]-1-[[(4-methylthio)phenyl]methyl]-2-methyl-1H -indole-3-acetic acid]",inhibition,[1],43%
"Cc1c(CC(=O)O)c2cc(OCc3ccccn3)ccc2n1Cc1ccc(Cl)cc1 [Example 36, 1-[(4-Chlorophenyl)methyl]-2-methyl-5-(2-pyridinylmethoxy)-1H-indole-3-acetic acid]",inhibition,[1],46%
"Cc1c(CC(=O)N(C)O)c2cc(OCc3ccc4ccccc4n3)ccc2n1Cc1ccc(Cl)cc1 [Example 22, 1-[(4-Chlorophenyl)methyl]-2-methyl-N-(methyl)-N-(hydroxy)-5-(2-quinolinylmethoxy)-1H,indole-3-acetamide three quarters hydrate]",% Inhibition of LTB4,[2]; 25 μM,78%
same,IC50,[2],39.8 µM
"Cc1c(CNC(=O)NO)c2cc(OCc3ccc4ccccc4n3)ccc2n1Cc1ccc(Cl)cc1 [Example 42, N-[[1-[(4-Chlorophenyl)methyl]-2-methyl-5-(2-quinolinylmethoxy)-1H-indol-3-yl]methyl]-N'-hydroxyurea]",% Inhibition of LTB4,[2]; 25 μM,89%
same,IC50,[2],5.6 µM
